In BindingDB's records for doi:10.1021/jm000209n (Tohoku University, 2000):
pEC50: −log10 of the molar value.

What was measured:
[1] = Tested in vitro against HIV-1 LAI from MT-4 cells using MTT assay
[2] = Tested in vitro against HIV-1 MDR using MAGI assay

SMILES | pEC50 [1] | pEC50 [2]
C#C[C@]1(CO)O[C@@H](n2cc(Cl)c(=O)[nH]c2=O)C[C@H]1O | 5.22 | 
C#C[C@]1(CO)O[C@@H](n2cc(F)c(=O)[nH]c2=O)C[C@H]1O | < 5.00 | 
C#C[C@]1(CO)O[C@@H](n2cc(CC)c(=O)[nH]c2=O)C[C@H]1O | < 3.44 | 
C#C[C@]1(CO)O[C@@H](n2cc(Br)c(=O)[nH]c2=O)C[C@H]1O | 5.64 | 
C#C[C@]1(CO)O[C@@H](n2cc(I)c(=O)[nH]c2=O)C[C@H]1O [1-(5-Ethynyl-4-hydroxy-5-hydroxymethyl-tetrahydro-furan-2-yl)-5-iodo-1H-pyrimidine-2,4-dione] | 6.47 | 6.21
C#C[C@]1(CO)O[C@@H](n2cc(C)c(=O)[nH]c2=O)C[C@H]1O [1-(5-Ethynyl-4-hydroxy-5-hydroxymethyl-tetrahydro-furan-2-yl)-5-methyl-1H-pyrimidine-2,4-dione] | 6.21 | 6.62
Cc1cn([C@H]2C[C@H](N=[N+]=[N-])[C@@H](CO)O2)c(=O)[nH]c1=O [1-((2R,4S,5S)-4-Azido-5-hydroxymethyl-tetrahydro-furan-2-yl)-5-methyl-1H-pyrimidine-2,4-dione] | 7.42 | 4.60
C#C[C@]1(CO)O[C@@H](n2cnc3c(=O)[nH]c(N)nc32)C[C@H]1O [2-Amino-9-(5-ethynyl-4-hydroxy-5-hydroxymethyl-tetrahydro-furan-2-yl)-9H-purin-6-ol] | 8.85 | 
C#C[C@]1(CO)O[C@@H](n2cnc3cncnc32)C[C@H]1O [2-Ethynyl-2-hydroxymethyl-5-purin-9-yl-tetrahydro-furan-3-ol] | 3.93 | 3.84
C#C[C@]1(CO)O[C@@H](n2ccc(N)nc2=O)C[C@H]1O [4-Amino-1-(5-ethynyl-4-hydroxy-5-hydroxymethyl-tetrahydro-furan-2-yl)-1H-pyrimidin-2-one] | 8.32 | 8.82
C#C[C@]1(CO)O[C@@H](n2cc(F)c(N)nc2=O)C[C@H]1O [4-Amino-1-(5-ethynyl-4-hydroxy-5-hydroxymethyl-tetrahydro-furan-2-yl)-5-fluoro-1H-pyrimidin-2-one] | 7.52 | 8.05
C#C[C@]1(CO)O[C@@H](n2cc(C)c(N)nc2=O)C[C@H]1O [4-Amino-1-(5-ethynyl-4-hydroxy-5-hydroxymethyl-tetrahydro-furan-2-yl)-5-methyl-1H-pyrimidin-2-one] | 7.96 | 8.35
C#C[C@]1(CO)O[C@@H](n2cnc3c(N)nc(N)nc32)C[C@H]1O [5-(2,6-Diamino-purin-9-yl)-2-ethynyl-2-hydroxymethyl-tetrahydro-furan-3-ol] | 9.52 | 8.89
C#C[C@]1(CO)O[C@@H](n2cnc3c(N)ncnc32)C[C@H]1O [5-(6-Amino-purin-9-yl)-2-ethynyl-2-hydroxymethyl-tetrahydro-furan-3-ol] | 7.92 | 
C#C[C@]1(CO)O[C@@H](n2cnc3c(=O)[nH]cnc32)C[C@H]1O [9-(5-Ethynyl-4-hydroxy-5-hydroxymethyl-tetrahydro-furan-2-yl)-9H-purin-6-ol] | 6.82 | 6.19
